Key:
[1] = molecular target: T1, menin-MLL interaction (Homo sapiens, UniProt O00255); experiment: biochemical
T1 sequence (O00255 1-610): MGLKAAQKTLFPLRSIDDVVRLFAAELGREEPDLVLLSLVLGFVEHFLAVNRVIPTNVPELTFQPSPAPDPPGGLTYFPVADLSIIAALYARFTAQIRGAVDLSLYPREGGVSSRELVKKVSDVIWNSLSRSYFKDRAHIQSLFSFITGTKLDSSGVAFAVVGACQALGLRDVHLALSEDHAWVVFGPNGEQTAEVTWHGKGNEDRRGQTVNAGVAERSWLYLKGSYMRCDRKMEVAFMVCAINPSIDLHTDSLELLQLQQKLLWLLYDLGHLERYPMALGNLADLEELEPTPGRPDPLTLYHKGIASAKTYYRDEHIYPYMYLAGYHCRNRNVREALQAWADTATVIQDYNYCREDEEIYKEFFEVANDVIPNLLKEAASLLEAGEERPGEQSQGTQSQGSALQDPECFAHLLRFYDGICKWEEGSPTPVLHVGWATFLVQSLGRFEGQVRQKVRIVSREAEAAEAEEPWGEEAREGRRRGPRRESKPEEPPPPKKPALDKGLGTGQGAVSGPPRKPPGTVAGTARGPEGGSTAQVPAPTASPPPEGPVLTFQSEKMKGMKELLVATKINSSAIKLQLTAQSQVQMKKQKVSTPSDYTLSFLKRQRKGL
Source text: Fluorescence Polarization Assay.
Compounds that inhibit the interaction decrease the fluorescence anisotropy which is being used as a read-out for compound screening and for IC50 determination.

[2] = test system: Hoxa9 and Meis1 expression in MLL-AF9 BMC; experiment: qRT-PCR of Hoxa9 and Meis1; format: cell-based, mouse; conditions: FIG. 10
[3] = test system: MLL-AF9 transformed mouse bone marrow cells (BMC); experiment: MTT cell viability assay in transformed BMC; format: cell-based; conditions: 72 h incubation, E2H-HLF transformed BMC as negative control, FIG. 3
[4] = molecular target: T2, menin (Homo sapiens, UniProt O00255); experiment: Isothermal Titration calorimetry (ITC); format: binding; conditions: FIG. 1
T2 sequence (O00255 1-610): T1 sequence (O00255 1-610)

[5] = molecular target: T3, menin-MLL-AF9 interaction (Homo sapiens, UniProt O00255); experiment: Co-Immunoprecipitation (co-IP) in HEK293 cells transfected with MLL-AF9; format: cell-based; conditions: FIG. 2
T3 construct: performed in HEK293 cells transfected with MLL-AF9; endogenous in cells; host or cells: HEK293
T3 sequence (O00255 1-610): T1 sequence (O00255 1-610)

[6] = test system: MLL-AF9 BMC; experiment: Colony formation assay; format: cell-based, mouse; conditions: FIG. 7
[7] = test system: mice model of MLL-AF9 leukemia; experiment: In vivo efficacy in mice model of MLL-AF9 leukemia; conditions: once daily i.p. injections of 75 mg/kg, FIG. 18
[8] = test system: human MLL leukemia cell lines; experiment: Growth / MTT cell viability in human MLL leukemia cell lines; format: cell-based
[9] = test system: MLL-AF9 BMC; experiment: Differentiation (CD11b expression, cell morphology); format: cell-based, mouse; conditions: change in CD11b expression and cell morphology, FIGS. 8, 9
[10] = test system: non-MLL leukemia cell lines; experiment: Growth in non-MLL leukemia cell lines; format: cell-based; conditions: FIG. 13B
[11] = test system: MLL-AF9 transformed BMC; experiment: Growth curves experiments in transformed BMC; format: cell-based, mouse; conditions: MLL-AF9 BMC vs Hoxa9/Meis1 transformed BMC (negative control), FIG. 5

## CC1(C)CN=C(N2C[C@@H]3C[C@H]2CN3c2ncnc3sc(CC(F)(F)F)cc23)S1 (racemic) [Compound 14]
[1]
  IC50: 100 to 510 nM

## CC1(C)CN=C(N2CCN(c3ncnc4sc(CC(F)(F)F)cc34)CC2)S1 [Compound 1, 4-(4-(5,5-dimethyl-4,5-dihydrothiazol-2-yl)piperazin-1-yl)-6-(2,2,2-trifluoroethyl)thieno[2,3-d]pyrimidine]
[2]
  expression of downstream targets of MLL fusion proteins: Hoxa9 and Meis1: downregulate expression
[3]
  proliferation of MLL leukemia cells: selectively inhibit proliferation
[4]
  binding to menin: direct binding
[5]
  inhibition of the menin-MLL-AF9 interaction: inhibition of the menin-MLL-AF9 interaction

## FC(F)(F)Cc1cc2c(NC3CCN(Cc4ccccc4)CC3)ncnc2s1 [Compound 108]
[6]
  morphology of colonies: changes morphology of colonies
[6]; each round 7 days
  colony number: reduces colony number
[2]
  expression of downstream targets of MLL fusion proteins: Hoxa9 and Meis1: downregulate expression
[3]
  proliferation of MLL leukemia cells: selectively inhibit proliferation
[7]
  survival of leukemic mice: Increase in survival
[8]; MTT, 3 days of incubation, FIG. 11
  growth of human MLL leukemia cell lines: selectively inhibit growth
[5]
  inhibition of the menin-MLL-AF9 interaction: inhibition of the menin-MLL-AF9 interaction

## CC(F)(F)Cc1cc2c(NC3CCN(Cc4ccccc4)CC3)ncnc2s1 [Compound 155]
[1]
  IC50: 500 to 2000 nM

## N#Cc1cc2cc(CN3CCC(Nc4ncnc5sc(CC(F)(F)F)cc45)CC3)ccc2[nH]1 [Compound 175, 5-((4-((6-(2,2,2-trifluoroethyl)thieno[2,3-d]pyrimidin-4-yl)amino)piperidin-1-yl)methyl)-1H-indole-2-carbonitrile]
[9]
  differentiation: Differentiation induced
[2]
  expression of downstream targets of MLL fusion proteins: Hoxa9 and Meis1: downregulate expression
[8]; FIG. 13A
  growth of human MLL leukemia cell lines: selectively inhibits growth
[10]
  effect in non-MLL leukemia cell lines: limited effect
[5]
  inhibition of the menin-MLL-AF9 interaction: inhibition of the menin-MLL-AF9 interaction
[11]
  selectivity towards MLL fusion protein transformed cells: great selectivity
